What is called IC50 is the midpoint of a concentration-inhibition curve. Broadly, the inhibition is the share of the control response that was lost under treatment.

Assay [1] relates to MKN-45. The assay can be described thus: Cytotoxicity against human MKN45 cells assessed as reduction in cell viability after 72 hrs by MTT assay. Particulars: MKN-45, 72 h. It counts as functional, cell-based. For orientation: Formazan colour is commonly taken as a measure of viable cells.
For assay [2], the system named is A549. The assay can be described thus: Cytotoxicity against human A549 cells assessed as reduction in cell viability after 72 hrs by MTT assay. Particulars: A549, 72 h. It is filed as functional, cell-based.
For assay [3], the target named is Vascular endothelial growth factor receptor 2 (Homo sapiens, UniProt P35968). Kind of assay: Inhibition of VEGFR2 (unknown origin) using peptide substrate after 60 mins by HTRF assay.
Sequence of Vascular endothelial growth factor receptor 2 (P35968 whole entry): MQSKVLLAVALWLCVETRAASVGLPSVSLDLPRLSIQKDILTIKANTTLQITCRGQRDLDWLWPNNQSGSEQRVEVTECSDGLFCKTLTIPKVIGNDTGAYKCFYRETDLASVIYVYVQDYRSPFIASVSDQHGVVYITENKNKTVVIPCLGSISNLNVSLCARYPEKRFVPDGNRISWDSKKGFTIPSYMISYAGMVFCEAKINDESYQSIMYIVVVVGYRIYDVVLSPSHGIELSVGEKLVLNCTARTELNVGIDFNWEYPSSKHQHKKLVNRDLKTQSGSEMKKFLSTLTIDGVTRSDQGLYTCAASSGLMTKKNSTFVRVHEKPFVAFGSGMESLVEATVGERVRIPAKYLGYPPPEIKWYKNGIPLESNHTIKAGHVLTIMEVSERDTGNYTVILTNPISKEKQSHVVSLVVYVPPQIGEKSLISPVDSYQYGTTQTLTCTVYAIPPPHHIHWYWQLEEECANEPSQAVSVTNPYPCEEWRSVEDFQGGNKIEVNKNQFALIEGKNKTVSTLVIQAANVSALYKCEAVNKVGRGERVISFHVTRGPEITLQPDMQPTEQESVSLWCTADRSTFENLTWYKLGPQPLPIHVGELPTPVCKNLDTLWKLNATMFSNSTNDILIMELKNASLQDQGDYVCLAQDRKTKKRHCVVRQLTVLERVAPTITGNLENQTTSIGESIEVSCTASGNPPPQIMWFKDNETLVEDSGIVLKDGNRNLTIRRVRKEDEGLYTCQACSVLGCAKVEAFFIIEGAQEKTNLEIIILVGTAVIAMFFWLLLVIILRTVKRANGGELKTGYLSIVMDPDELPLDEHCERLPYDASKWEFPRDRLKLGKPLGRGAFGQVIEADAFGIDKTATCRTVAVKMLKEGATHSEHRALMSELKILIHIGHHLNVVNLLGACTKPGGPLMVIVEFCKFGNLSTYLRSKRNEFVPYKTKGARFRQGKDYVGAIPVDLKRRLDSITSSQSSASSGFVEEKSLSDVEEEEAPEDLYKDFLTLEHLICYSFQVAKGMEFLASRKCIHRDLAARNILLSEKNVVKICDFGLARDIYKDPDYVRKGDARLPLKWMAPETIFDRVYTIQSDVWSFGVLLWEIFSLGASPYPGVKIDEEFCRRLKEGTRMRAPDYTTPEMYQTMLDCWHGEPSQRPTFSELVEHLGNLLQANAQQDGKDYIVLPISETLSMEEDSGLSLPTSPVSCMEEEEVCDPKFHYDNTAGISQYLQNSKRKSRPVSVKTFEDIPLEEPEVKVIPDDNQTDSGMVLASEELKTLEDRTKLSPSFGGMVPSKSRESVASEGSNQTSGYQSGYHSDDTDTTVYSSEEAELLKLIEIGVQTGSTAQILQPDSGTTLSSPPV
Assay [4] can be described thus: Antifibrotic activity against Wistar rat cardiac fibroblasts assessed as inhibition of cell proliferation at 20 uM after 12 hrs by MTT assay relative to control. It counts as functional.
In assay [5] the test system is RAW264.7. Kind of assay: Anti-inflammatory activity in mouse RAW264.7 cells assessed as inhibition of LPS-induced NO production by measuring NO level at 10 ug/ml preincubated for 1 hr followed by LPS-stimulation measured after 24 hrs by Griess assay. It is filed as functional.
The target of assay [6] is Epidermal growth factor receptor (Homo sapiens, UniProt P00533). Kind of assay: Inhibition of EGFR (unknown origin) using peptide substrate after 60 mins by HTRF assay. (In general: Time-resolved FRET reads energy transfer from a long-lived donor to a nearby acceptor.)
Sequence of Epidermal growth factor receptor (Homo sapiens, UniProt P00533) (P00533 whole entry): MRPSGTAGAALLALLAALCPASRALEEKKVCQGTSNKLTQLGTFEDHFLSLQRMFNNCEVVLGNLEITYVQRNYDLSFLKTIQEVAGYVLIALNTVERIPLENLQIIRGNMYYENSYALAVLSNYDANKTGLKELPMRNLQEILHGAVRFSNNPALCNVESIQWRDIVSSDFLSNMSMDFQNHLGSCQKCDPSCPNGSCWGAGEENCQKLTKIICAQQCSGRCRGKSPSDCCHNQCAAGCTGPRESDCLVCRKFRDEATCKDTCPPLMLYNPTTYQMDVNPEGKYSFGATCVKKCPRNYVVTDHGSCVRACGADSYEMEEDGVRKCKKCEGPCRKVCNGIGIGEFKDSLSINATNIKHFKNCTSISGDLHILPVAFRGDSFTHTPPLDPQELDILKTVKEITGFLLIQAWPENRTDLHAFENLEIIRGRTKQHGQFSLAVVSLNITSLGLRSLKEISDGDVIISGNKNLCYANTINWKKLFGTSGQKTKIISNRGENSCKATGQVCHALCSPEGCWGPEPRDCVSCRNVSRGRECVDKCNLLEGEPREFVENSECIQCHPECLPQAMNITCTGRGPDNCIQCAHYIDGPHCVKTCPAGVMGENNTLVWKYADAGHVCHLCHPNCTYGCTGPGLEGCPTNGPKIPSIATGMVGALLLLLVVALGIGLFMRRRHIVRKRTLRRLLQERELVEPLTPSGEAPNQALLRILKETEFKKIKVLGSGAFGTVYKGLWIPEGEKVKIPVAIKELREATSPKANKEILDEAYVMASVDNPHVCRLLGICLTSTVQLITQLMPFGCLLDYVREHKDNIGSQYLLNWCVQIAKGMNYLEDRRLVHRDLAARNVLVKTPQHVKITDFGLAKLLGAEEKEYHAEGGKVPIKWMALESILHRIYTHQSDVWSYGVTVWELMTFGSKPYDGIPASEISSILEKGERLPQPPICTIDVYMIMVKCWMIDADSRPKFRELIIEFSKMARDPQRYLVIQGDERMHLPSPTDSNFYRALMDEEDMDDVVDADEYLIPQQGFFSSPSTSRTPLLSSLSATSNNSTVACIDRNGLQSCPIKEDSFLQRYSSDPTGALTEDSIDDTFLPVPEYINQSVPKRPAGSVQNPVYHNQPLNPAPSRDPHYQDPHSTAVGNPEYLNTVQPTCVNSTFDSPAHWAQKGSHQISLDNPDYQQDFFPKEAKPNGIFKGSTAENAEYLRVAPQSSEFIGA
The test system of the next assay is NCI-H1975. Kind of assay: Cytotoxicity against human NCI-H1975 cells assessed as reduction in cell viability after 72 hrs by MTT assay. It counts as functional, cell-based. Particulars: NCI-H1975, 72 h.
The nature of assay [7]: Cytotoxicity against human SGC cells assessed as reduction in cell viability after 72 hrs by MTT assay. It is filed as functional, cell-based.
Assay [8] in a line: Inhibition of ATX (unknown origin). On the set-up: species or system Homo sapiens.
Assay [9] is described as follows: Inhibition of glycosylated human ATX using substrate FS-3 preincubated for 45 mins followed by substrate addition measured after 45 mins by fluorescence assay.
A short description of assay [10]: Antifibrotic activity against TGF-induced Wistar rat cardiac fibroblasts assessed as inhibition of cell proliferation after 12 hrs by MTT assay. It is filed as functional.
For assay [11], the system named is RAW264.7. The assay can be described thus: Anti-inflammatory activity in mouse RAW264.7 cells assessed as inhibition of LPS-induced NO production by measuring NO level at 2.5 ug/ml preincubated for 1 hr followed by LPS-stimulation measured after 24 hrs by Griess assay. It counts as functional.
In assay [12] the test system is RAW264.7. Kind of assay: Anti-inflammatory activity in mouse RAW264.7 cells assessed as inhibition of LPS-induced NO production by measuring NO level at 5 ug/ml preincubated for 1 hr followed by LPS-stimulation measured after 24 hrs by Griess assay. It is filed as functional.
Assay [13] concerns the target Epidermal growth factor receptor (Homo sapiens, UniProt P00533, L858R/T790M). Kind of assay: Inhibition of EGFR T790M/L858R double mutant (unknown origin) using peptide substrate after 60 mins by HTRF assay.
The nature of assay [14]: Potency index, ratio of gefitinib IC50 to compound IC50 for human SGC cells. It is filed as functional.
In assay [15] the test system is A549. The assay can be described thus: Potency index, ratio of gefitinib IC50 to compound IC50 for human A549 cells. It counts as functional.
In assay [16] the test system is MKN-45. The assay can be described thus: Potency index, ratio of gefitinib IC50 to compound IC50 for human MKN45 cells. It counts as functional.
Assay [17] relates to RAW264.7. The assay can be described thus: Anti-inflammatory activity in mouse RAW264.7 cells assessed as inhibition of LPS-induced TGFbeta mRNA level at 5 ug/ml preincubated for 2 hrs followed by LPS-stimulation measured after 8 hrs by RT-PCR method relative to control. It counts as functional.
Assay [18] concerns RAW264.7. The assay can be described thus: Anti-inflammatory activity in mouse RAW264.7 cells assessed as inhibition of LPS-induced TGFbeta mRNA level preincubated for 2 hrs followed by LPS-stimulation measured after 8 hrs by RT-PCR method. It counts as functional, cell-based.
For assay [19], the system named is RAW264.7. The assay can be described thus: Anti-inflammatory activity in mouse RAW264.7 cells assessed as inhibition of LPS-induced TNFalpha mRNA level at 2.5 ug/ml preincubated for 2 hrs followed by LPS-stimulation measured after 8 hrs by RT-PCR method relative to control. It is filed as functional.
Assay [20] deals with RAW264.7. The assay can be described thus: Anti-inflammatory activity in mouse RAW264.7 cells assessed as inhibition of LPS-induced TGFbeta mRNA level at 2.5 ug/ml preincubated for 2 hrs followed by LPS-stimulation measured after 8 hrs by RT-PCR method relative to control. It counts as functional.
For assay [21], the system named is RAW264.7. The assay can be described thus: Anti-inflammatory activity in mouse RAW264.7 cells assessed as inhibition of LPS-induced TNFalpha mRNA level at 10 ug/ml preincubated for 2 hrs followed by LPS-stimulation measured after 8 hrs by RT-PCR method relative to control. It counts as functional.
Assay [22] concerns RAW264.7. The assay can be described thus: Anti-inflammatory activity in mouse RAW264.7 cells assessed as inhibition of LPS-induced TGFbeta mRNA level at 10 ug/ml preincubated for 2 hrs followed by LPS-stimulation measured after 8 hrs by RT-PCR method relative to control. It is filed as functional.
Assay [23] relates to RAW264.7. The assay can be described thus: Anti-inflammatory activity in mouse RAW264.7 cells assessed as inhibition of LPS-induced TNFalpha mRNA level preincubated for 2 hrs followed by LPS-stimulation measured after 8 hrs by RT-PCR method. It counts as functional, cell-based.
In assay [24] the test system is RAW264.7. Kind of assay: Anti-inflammatory activity in mouse RAW264.7 cells assessed as inhibition of LPS-induced TNFalpha mRNA level at 5 ug/ml preincubated for 2 hrs followed by LPS-stimulation measured after 8 hrs by RT-PCR method relative to control. It counts as functional.

Calls of active or inactive are those of the source. The calls are words filed in the database; no cut-off is given here. A value given as a limit tells only on which side of the number the result lay.

Sequence of Epidermal growth factor receptor (Homo sapiens, UniProt P00533, L858R/T790M) (P00533 25-1210 T790M/L858R limits assumed): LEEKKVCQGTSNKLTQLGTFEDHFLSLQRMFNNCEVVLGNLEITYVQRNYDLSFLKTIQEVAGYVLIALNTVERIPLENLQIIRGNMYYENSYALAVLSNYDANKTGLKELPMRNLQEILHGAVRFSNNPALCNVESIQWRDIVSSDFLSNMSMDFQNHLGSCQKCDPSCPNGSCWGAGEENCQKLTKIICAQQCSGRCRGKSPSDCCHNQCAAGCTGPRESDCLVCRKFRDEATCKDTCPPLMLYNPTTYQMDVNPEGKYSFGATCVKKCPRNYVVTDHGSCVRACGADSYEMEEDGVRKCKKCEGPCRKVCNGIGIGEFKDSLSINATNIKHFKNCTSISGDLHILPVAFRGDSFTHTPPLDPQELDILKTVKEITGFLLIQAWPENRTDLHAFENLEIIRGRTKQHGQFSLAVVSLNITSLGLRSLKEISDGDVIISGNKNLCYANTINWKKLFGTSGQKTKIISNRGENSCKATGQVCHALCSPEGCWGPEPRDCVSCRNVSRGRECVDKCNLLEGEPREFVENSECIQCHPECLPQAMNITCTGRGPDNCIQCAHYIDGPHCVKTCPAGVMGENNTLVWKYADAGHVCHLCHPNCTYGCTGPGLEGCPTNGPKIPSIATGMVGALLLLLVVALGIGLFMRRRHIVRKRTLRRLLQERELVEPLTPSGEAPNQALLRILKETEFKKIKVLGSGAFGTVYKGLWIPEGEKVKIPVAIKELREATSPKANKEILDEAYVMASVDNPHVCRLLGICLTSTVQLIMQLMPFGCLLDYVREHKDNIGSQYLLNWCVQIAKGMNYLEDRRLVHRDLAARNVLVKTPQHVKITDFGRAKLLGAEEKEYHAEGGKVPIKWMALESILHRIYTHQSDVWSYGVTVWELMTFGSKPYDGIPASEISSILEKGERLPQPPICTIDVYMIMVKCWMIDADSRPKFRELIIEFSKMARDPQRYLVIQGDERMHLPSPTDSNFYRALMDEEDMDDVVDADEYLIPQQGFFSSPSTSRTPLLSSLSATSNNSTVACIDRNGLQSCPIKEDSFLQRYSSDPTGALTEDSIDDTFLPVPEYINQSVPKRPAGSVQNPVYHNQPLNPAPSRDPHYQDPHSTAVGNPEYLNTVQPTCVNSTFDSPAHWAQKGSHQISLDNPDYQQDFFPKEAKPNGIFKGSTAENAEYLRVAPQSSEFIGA

For `O=C(N/N=C/c1cccs1)N1CCc2ncnc(Nc3ccc(F)c(Cl)c3)c2C1`, the IC50 in the assay with MKN-45 [1] is 57300 nM; in the assay on A549 [2], over 200000 nM; in [3], 237 nM; in assay [6], 62.5 nM; with NCI-H1975, 33000 nM; in [7], 96300 nM. The inhibition at 20 µM in assay [4] came to 83%. Also, in the assay on RAW264.7 [5], the Activity is under 1.9 µM.

Consider `O=C(CCc1nc2ccccc2s1)N1CCc2ncnc(Cc3ccc(F)cc3)c2C1`, for which the figures for the concentration for half-maximal inhibition (IC50) in assay [8] and in assay [9] were 2.59 nM and 10.4 nM, respectively. Moreover, the inhibition at 20 µM in assay [4] is 68%.

For `O=C(N/N=C/c1cc(F)c(F)cc1Cl)N1CCc2ncnc(Nc3ccc(F)c(Cl)c3)c2C1`, the IC50 was 7330 nM in the assay with MKN-45 [1]; 7550 nM in the assay on A549 [2]; 1910 nM in [10]; 38.4 nM in assay [9]; 170 nM in assay [3]; 42.3 nM in assay [6]. For the same compound, the IC50 with NCI-H1975 was 46100 nM; in assay [7], 10400 nM. The inhibition at 20 µM in assay [4] lay in the range of 65 to 83%.

`O=C(N/N=C/c1ccc(F)cc1Cl)N1CCc2ncnc(Nc3cccc(Br)c3)c2C1`: the IC50 in the assay with MKN-45 [1] was found to be 1710 nM; with A549 [2], 1610 nM; in assay [3], 133 nM; in assay [13], 940 nM; in assay [6], 18 nM; in the assay with NCI-H1975, 15600 nM. In addition, in [7], the half-inhibitory concentration (IC50) was determined as 990 nM. In addition, the inhibition result with RAW264.7 [11], with RAW264.7 [12] and with RAW264.7 [5] was “Active” in each case. For the same compound, the “Ratio IC50” value in assay [14] stood at 3.3; in the assay with A549 [15], 7.6; with MKN-45 [16], 6.1.

With `O=C(N/N=C/c1ccc(Br)cc1)N1CCc2ncnc(Nc3cccc(Br)c3)c2C1`, the IC50 stood at 23600 nM with MKN-45 [1], 6560 nM in the assay with A549 [2], 51000 nM with NCI-H1975 and 6930 nM in assay [7]. Also, the inhibition result with RAW264.7 [11], in the assay on RAW264.7 [12] and in the assay with RAW264.7 [5] was “Active” each time. In [4], the inhibition at 20 µM was in the range of 65 to 83%.

`O=C(N/N=C/c1ccc(C(F)(F)F)cc1)N1CCc2ncnc(Nc3ccc(F)c(Cl)c3)c2C1`: the 50% inhibitory concentration (IC50) in the assay with MKN-45 [1] was determined as 21400 nM; in the assay with A549 [2], 37800 nM; in the assay with NCI-H1975 it was 36800 nM; in assay [7] it was 36400 nM. Further, the Activity came out at 3.87 µM in the assay with RAW264.7 [11], 2.1 µM in the assay with RAW264.7 [12] and 0.79 µM in the assay on RAW264.7 [5]. Also, the inhibition at 20 µM in assay [4] is 65 to 83%.

As for `O=C(N/N=C/c1ccc(F)cc1)N1CCc2ncnc(Nc3cccc(Br)c3)c2C1`, the IC50 in the assay with MKN-45 [1] amounted to 2490 nM; with A549 [2], 2270 nM; in the assay on NCI-H1975 it was 37600 nM; in assay [7], 1790 nM. Also, the inhibition entry with RAW264.7 [11], in the assay with RAW264.7 [12] and in the assay with RAW264.7 [5] was “Active” throughout.

As for `O=C(N/N=C/c1cccc(Br)c1)N1CCc2ncnc(Nc3cccc(Br)c3)c2C1`, the inhibition entry in the assay with RAW264.7 [11], in the assay with RAW264.7 [12] and in the assay on RAW264.7 [5] was “Active” in each case.

For `Cc1ccc(/C=N/NC(=O)N2CCc3ncnc(Nc4cccc(C(F)(F)F)c4)c3C2)cc1`, the figures for the inhibition at 5 µg/mL in the assay with RAW264.7 [17] and in the assay on RAW264.7 [24] were 65% and 54%, respectively. In addition, the inhibition result in the assay with RAW264.7 [18] and in the assay on RAW264.7 [23] was “Dose-dependent effect” throughout. In addition, the IC50 in the assay on MKN-45 [1] turned out to be 3430 nM; in the assay on A549 [2] it was 4960 nM; in assay [10], 1490 nM; in assay [9] it was 29.1 nM; in assay [3], 152 nM; in assay [13], 3220 nM. In addition, the half-inhibitory concentration (IC50) is 24.2 nM in [6], 21300 nM with NCI-H1975 and 2910 nM in assay [7]. Moreover, the inhibition at 2.5 µg/mL was 37% in the assay on RAW264.7 [19] and 46% in the assay with RAW264.7 [20]. Also, the inhibition at 10 µg/mL was found to be 72% in the assay with RAW264.7 [21] and 86% in the assay on RAW264.7 [22]. In assay [4], the inhibition at 20 µM came to 77%. Also, the Activity in the assay on RAW264.7 [5] came out at 1.05 µM.

The values above are taken from ChEMBL document CHEMBL4219106, “Discovery and optimization of tetrahydropyrido[4,3-d]pyrimidine derivatives as novel ATX and EGFR dual inhibitors” (Bioorg Med Chem, 2018).
